Kd data for eleven compounds are collected here from BindingDB's records for patent US20240066136 (Cullgen (Shanghai), 2024).

Bounds are passed on as bounds.

DNA damage-binding protein 1, sequence (Q16531 whole entry): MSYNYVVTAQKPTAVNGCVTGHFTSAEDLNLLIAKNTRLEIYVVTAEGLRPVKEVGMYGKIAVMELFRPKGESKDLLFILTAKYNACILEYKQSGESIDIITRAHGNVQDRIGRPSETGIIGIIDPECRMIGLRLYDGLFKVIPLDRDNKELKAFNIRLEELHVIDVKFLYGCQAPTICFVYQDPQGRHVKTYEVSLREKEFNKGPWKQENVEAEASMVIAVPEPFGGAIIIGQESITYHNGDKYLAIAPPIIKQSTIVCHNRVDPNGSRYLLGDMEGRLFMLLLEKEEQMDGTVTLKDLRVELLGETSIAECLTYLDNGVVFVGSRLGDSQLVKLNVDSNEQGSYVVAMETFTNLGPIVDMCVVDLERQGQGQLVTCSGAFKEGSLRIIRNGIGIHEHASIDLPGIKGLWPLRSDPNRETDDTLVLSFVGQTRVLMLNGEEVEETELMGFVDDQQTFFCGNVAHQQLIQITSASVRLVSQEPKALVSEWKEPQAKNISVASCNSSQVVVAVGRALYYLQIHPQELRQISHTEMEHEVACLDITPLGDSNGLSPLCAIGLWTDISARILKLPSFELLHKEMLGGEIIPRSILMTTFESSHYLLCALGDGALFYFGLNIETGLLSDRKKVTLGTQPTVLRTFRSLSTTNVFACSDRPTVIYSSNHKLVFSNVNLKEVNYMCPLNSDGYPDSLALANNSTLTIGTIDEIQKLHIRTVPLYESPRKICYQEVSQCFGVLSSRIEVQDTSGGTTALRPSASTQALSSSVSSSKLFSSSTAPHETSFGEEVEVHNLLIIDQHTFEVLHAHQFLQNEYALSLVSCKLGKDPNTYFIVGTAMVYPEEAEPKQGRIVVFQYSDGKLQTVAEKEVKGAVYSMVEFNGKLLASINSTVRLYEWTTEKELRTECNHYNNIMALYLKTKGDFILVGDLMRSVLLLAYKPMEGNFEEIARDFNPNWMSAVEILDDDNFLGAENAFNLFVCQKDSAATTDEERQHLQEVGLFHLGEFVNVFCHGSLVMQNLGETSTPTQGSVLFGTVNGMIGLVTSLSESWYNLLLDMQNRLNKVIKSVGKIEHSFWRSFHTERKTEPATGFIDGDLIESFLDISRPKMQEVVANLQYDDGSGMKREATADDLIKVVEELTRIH

This experiment concerns the target DNA damage-binding protein 1 (Homo sapiens, UniProt Q16531). The experiment can be described thus: Surface Plasmon Resonance (SPR) Binding Assay. How it is done: Surface plasmon resonance (SPR) binding assay. All SPR studies were performed on a Biacore X100 plus or T200 instrument (GE Healthcare). Immobilization of purified His-DDB1 was carried out at 25° C. using a CM5 sensor chip. The surface was pre-equilibrated in HBS-EP running buffer (10 mM HEPES, pH7.4, 150 mM NaCl, 3 mM EDTA, 0.05% P20), then activated with EDC/NHS. His-DDB1 proteins were immobilized by amine coupling to a density of 11,000-13,000 resonance units (RUs) on flow cell FC2, whereas flow cell FC1 was used as reference. Both DDB1 immobilized and reference surfaces were deactivated with 1M ethanolamine.
In the case of `CCCC(=O)Nc1ccc(C(=O)Nc2ncc([N+](=O)[O-])s2)c(OC(=O)CCC)c1` [US20240066136,Compound B-24], the Kd – broadly, the equilibrium constant for the complex coming apart – was “in the range around 60 µM”.

In the case of `CCCC(=O)Nc1ccc(C(=O)Nc2ncc([N+](=O)[O-])s2)c(NC(C)=O)c1` [US20240066136,Compound B-146], the Kd lay in the range of 20 to 100 µM.

Turning to `Cc1nc(NC(=O)c2ccccc2NC(=O)CCOCCOCCCOCCN)sc1[N+](=O)[O-]` [US20240066136,Compound BL-2], the dissociation constant (Kd) entry was “in the range around 60 µM”.

In the case of `NCCOCCCOCCOCCC(=O)Nc1ccccc1C(=O)Nc1ncc([N+](=O)[O-])s1` [US20240066136,Compound BL-3], the Kd entry was “in the range around 60 µM”.

Turning to `CC(=O)Nc1cc(C(=O)NCCCCCCN)ccc1C(=O)Nc1nc(C)c([N+](=O)[O-])s1` [US20240066136,Compound BL-4], the dissociation constant Kd is above 0.1 µM.

Compound `CC[C@H](C)[C@H](N)C(=O)N[C@@H](CC(C)C)C(=O)N1CCC[C@H]1C(=O)N[C@@H](CCCCN)C(=O)N[C@H](C(=O)N[C@@H](CC(C)C)C(=O)N[C@@H](Cc1cnc[nH]1)C(=O)N[C@@H](CCCCN)C(=O)N[C@@H](CCCNC(=N)N)C(=O)N[C@H](C(=O)N[C@@H](CC(C)C)C(=O)NCC(=O)N[C@@H](CC(C)C)C(=O)N[C@@H](CO)C(=O)O)[C@@H](C)O)C(C)C` [US20240066136,Peptide 1] gave a Kd below 20 µM.

The compound `CC[C@H](C)[C@H](N)C(=O)N[C@@H](CC(C)C)C(=O)N1CCC[C@H]1C(=O)N[C@@H](CCCCN)C(=O)N[C@H](C(=O)N[C@@H](CC(C)C)C(=O)N[C@@H](Cc1cnc[nH]1)C(=O)N[C@@H](CCCCN)C(=O)N[C@@H](CCCNC(=N)N)C(=O)N[C@H](C(=O)N[C@@H](CC(C)C)C(=O)NCC(=O)N[C@@H](CC(C)C)C(=O)O)[C@@H](C)O)C(C)C` [US20240066136,Peptide 3] returned a Kd below 20 µM.

“H-ILPKVLHKRTFGL-OH [US20240066136,Peptide 4]” had an equilibrium dissociation constant (Kd) below 20 µM.

“H-ILPKVWHKRELGLS-OH [US20240066136,Peptide 2]” came in with a Kd below 20 µM.

As to “H-KVLHKRTLG-OH [US20240066136,Peptide 5]”, the Kd was below 20 µM.

“H-NFTSRLNRRASFP-OH [US20240066136,Peptide 6]” displayed a Kd below 20 µM.
